In PubChem BioAssay (NCI):
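Compound exposure: 48 hours, 5 concentrations, 96-well plates. At the GI50, growth is halved. Definition used: TGI = concentration required for complete inhibition of growth.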

Legend:
Experiment in all cases: NCI-60 cell line screen, 48 h
[1] = system: UACC-62 melanoma
[2] = system: NCI-H522 lung
[3] = system: MALME-3M melanoma
[4] = system: SF-295 CNS
[5] = system: KM12 colon
[6] = system: A549 NSCLC
[7] = system: UACC-257 melanoma
[8] = system: NCI-H23 lung
[9] = system: SK-MEL-2 melanoma
[10] = system: SF-268 CNS

SMILES | TGI [1] [µM] | TGI [2] [µM] | TGI [3] [µM] | TGI [4] [µM] | TGI [5] [µM] | TGI [6] [µM] | TGI [7] [µM] | TGI [8] [µM] | TGI [9] [µM] | TGI [10] [µM] | GI50 [1] [µM] | GI50 [2] [µM] | GI50 [3] [µM] | GI50 [4] [µM] | GI50 [5] [µM] | GI50 [6] [µM] | GI50 [7] [µM] | GI50 [8] [µM] | GI50 [9] [µM] | GI50 [10] [µM]
NC(=O)c1c[se]c(C2OC(CO)C(O)C2O)n1 (stereo not given) | > 100 | > 100 | > 100 | > 49.8 | > 45 | > 100 | > 100 | > 100 | > 100 | > 100 |  |  |  |  |  |  |  |  |  | 
Cc1nn(C(=O)c2ccccc2O)c2c1C(c1ccccc1)SC(N)=N2 (stereo not given) | 9.73 | > 10 | > 10 | > 10 | > 10 | > 10 | > 10 | > 10 | > 10 | > 10 |  |  |  |  |  |  |  |  |  | 
COc1cc2c(cc1C)NC(=O)/C2=C\c1cc(OC)c(OC)c(OC)c1 | > 100 | > 100 | > 100 | > 100 | > 100 | > 100 | > 100 | > 100 | > 100 | > 100 | 37.3 | > 100 | 72.3 | 39.5 | > 100 | > 100 | 91.2 | 29.7 | 34.3 | > 100
CCN(CC)CCNc1c(OC)cc(C)c2sc3ccccc3c(=O)c12 | 3.36 | 20 | 6.08 | 14.4 | 17.2 | 18 | 3.6 | 29 | 27.9 | 25.7 |  |  |  |  |  |  |  |  |  | 
COc1cc([C@H](C)c2ccc3ccccc3c2)cc(OC)c1OC | > 100 | 28.3 | > 100 | > 100 | > 100 | > 100 | 44 | > 100 | 65.4 | > 100 | 0.499 | 0.376 | 1.36 | 0.201 | 0.276 | 0.595 | 1.97 | 0.696 | 0.527 | 1.67
COc1cc(-c2cnn(C)c2)ccc1Nc1ncc2ccnc(N[C@@H](C)C(C)(C)C)c2n1 | > 100 | > 100 | > 100 | > 100 | > 100 | > 100 | > 100 | > 100 | > 100 | > 100 | > 100 | > 100 | > 66 | > 63.3 | 1.51 | > 45.5 | > 100 | > 53.7 | > 100 | > 41.5
CC(=O)O[C@H]1C(N(C)C(=O)c2ccccc2)CC[C@]2(C)C3CC[C@@]4(C)C(CC(O)[C@@H]4C(C)N(C)C)[C@@H]3CCC12 (stereo not given in full) | > 100 | > 100 | > 100 | > 100 | > 100 | > 100 | > 100 | > 100 | > 100 | > 100 |  |  |  |  |  |  |  |  |  | 
COc1cc(/C=C/c2cc(C(F)(F)F)[nH]c(=O)n2)ccc1OCc1ccccc1F | 21.6 | 20.4 | 43.1 | 22 | 26.2 | 40.3 | 31.3 | 31.9 | 28.2 | > 100 | 7.57 | 5.62 | 13.9 | 5.07 | 11.8 | 6.97 | 7.51 | 10.5 | 12.1 | 17.9
